# Source: patent publication US20220096452A1, “LOCAL ANESTHETIC FOR THE TREATMENT OF NEUROLOGICAL SYMPTOMS RESULTING FROM BRAIN DYSFUNCTIONS” (ICM (INSTITUT DU CERVEAU ET DE LA MOELLE ÉPINIÈRE), priority 2019, published 2022)
# Entries after “also recorded” stand apart in the source; their conditions may differ.
# Key:
# Format in all cases: in vivo, human
# [1] = system: patient who suffered from almost complete cortical blindness following a bilateral occipital stroke; experiment: Clinical assessment of vision (visual field by confrontation), on vs off periods
# Source text: In 2010, a patient underwent surgery for the removal of a cervical herniated intervertebral disc (C6-C7). Immediately following surgery, they suffered from a dissection of their right vertebral artery, resulting in bilateral occipital and right cerebellar infarcts. They presented initially with almost complete cortical blindness, left hemiparesis, gait instability, mild swallowing difficulties. Visual perception improved in a small peripheral part of their right visual hemifield, while all other symptoms recovered fully.
# The inverse phenomenon took place, over about 1 minute, during the transition from on to off periods.
# [2] = system: patient who suffered from almost complete cortical blindness following a bilateral occipital stroke; experiment: Visual field assessment, full-threshold Humphrey visual field (HVF), 24-2 SITA
# Source text: Those clinical observations were supported and refined by assessment of the visual field with the full-threshold Humphrey visual field (HVF), 24-2 Swedish Interactive Thresholding Algorithm (SITA) (Carl Zeiss Meditec Inc., Dublin, Calif.).
# The same pattern prevailed using Goldmann perimetry.
# [3] = system: patient who suffered from almost complete cortical blindness following a bilateral occipital stroke; experiment: Neurovisual evaluation (BORB and other tests) during on periods
# Source text: As shown in the table below, during on periods, all tests involving visual perception were normal, except for a mild deficit in the Facial recognition test, with no discernible impairment of face perception in everyday life.
# [4] = system: patient who suffered from almost complete cortical blindness following a bilateral occipital stroke; experiment: General neurological examination; settings: either off or on Mepivacaine
# Source text: Apart from the patient's visual status, […] general neurological examination was normal, either off or on Mepivacaine. They had no sensory or motor impairment, no abnormalities of the cranial nerves, no cognitive deficit (MMSE=29/30, FAB 16/18, Five Words Test 10/10). There was no psychiatric symptoms, except for a depressive mood whenever the patient was off medication and virtually blind.
# [5] = system: patient who suffered from almost complete cortical blindness following a bilateral occipital stroke; experiment: Resting state functional MRI connectivity, on vs off periods
# Procedure: Resting state fMRI is a method of functional magnetic resonance imaging (fMRI) that is used in brain mapping to evaluate regional interactions that occur in a resting or task-negative state, when an explicit task is not being performed. We gathered MRI images while the patient was at rest with their eyes closed, during off and on periods. Those data were analyzed using the CONN toolbox (https://web.conn-toolbox.org/home). We report here two results providing pathophysiological correlates of vision recovery in the patient's right visual hemifield under Mepivacaine.
# The left early visual cortex (or calcarine cortex) is the entry gate into the brain of visual information from the right hemifield. […] We predicted that whatever its underlying mechanism, functional recovery implies a restoration of functional communication between the left calcarine cortex and distant cortical areas.
# We predicted that the restoration of vision should be accompanied with an overall increase of connectivity between the visual system and the rest of the brain. We computed for each voxel of the brain the average connectivity with the rest of the brain (or “intrinsic connectivity”), and studied the changes of this value between off and on periods.
# [6] = system: patient who suffered from almost complete cortical blindness following a bilateral occipital stroke; experiment: 18F-FDG PET-scan brain metabolism, on vs off periods
compound,measurement,setting,value
"Cc1cccc(C)c1NC(=O)C1CCCCN1C (stereo not shown) [Mepivacaine, I-methyl-2′,6′-pipecoloxylidide]",vision in the left hemifield (confrontation),[1]; during on periods,dense hemianopia persisted
same,vision in the right hemifield (confrontation),[1]; during on periods,vision returned to normal in the right hemifield
same,duration of transition from off to on periods (widening of spared vision to whole right hemifield),[1]; patient description,over a matter of seconds
same,duration of transition from on to off periods,[1]; patient description,about 1 minute
same,visual ability of the patient,"[1]; pursuant administration, single patient",improvement of visual ability
same,vision in the left superior quadrant,[2]; on period / under Mepivacaine,recovered in a small paramedial island in the left superior quadrant; also recorded: extends to part of the left superior quadrant
same,vision in the right hemifield (HVF),"[2]; on period, FIG. 2","vision returned to normal in the whole right hemifield, except for a small superior paracentral island"
same,island of right visual field corresponding to right occipital infarct,[2]; under Mepivacaine,not improved
same,"BORB TEST 1: Copying, score",[3],9/9
same,"BORB TEST 2: Length Match Task, score",[3],26/30
same,"BORB TEST 3: Size Match Task, score",[3],28/30
same,"BORB TEST 4: Orientation Match Task, score",[3],25/30
same,"BORB TEST 5: Position of Gap Match Task, score",[3],37/40
same,"BORB TEST 7: Minimal Feature View Test, score",[3],25/25
same,"BORB TEST 8: Foreshortened View Task, score",[3],25/25
same,"BORB TEST 9: Drawing from Memory, score",[3],6/6
same,"BORB TEST 10: Object Decision Task, score",[3],26/32
same,"BORB TEST 11: Function Match Task, score",[3],31/32
same,"BORB TEST 12: Associative Match Task, score",[3],29/30
same,"Benton's Judgment of Line Orientation, score",[3],14/15
same,"Block design test (WAIS-IV), score",[3],53/66
same,"Facial recognition test (Benton, 1963), score",[3],38/54
same,"Facial recognition test, in words",[3],mild deficit
same,"Hooper Test (Richardson and Marattoli, 1996), score",[3],27/30
same,"Matrix reasoning test (WAIS-IV), score",[3],22/26
same,"OD 80 picture naming test (Deloche and Hannequin, 1996), score",[3],80/80
same,all tests involving visual perception,[3],normal
same,"Block design test (WAIS-IV), NS",[3]; NS,13
same,"Matrix reasoning test (WAIS-IV), NS",[3]; NS,14
same,"BORB TEST 2: Length Match Task, z",[3]; z score,0.56
same,"BORB TEST 3: Size Match Task, z",[3]; z score,0.29
same,"BORB TEST 4: Orientation Match Task, z",[3]; z score,0.08
same,"BORB TEST 5: Position of Gap Match Task, z",[3]; z score,0.48
same,"BORB TEST 7: Minimal Feature View Test, z",[3]; z score,0.85
same,"BORB TEST 8: Foreshortened View Task, z",[3]; z score,1.31
same,"BORB TEST 10: Object Decision Task, z",[3]; z score,0.45
same,"BORB TEST 11: Function Match Task, z",[3]; z score,0.45
same,"BORB TEST 12: Associative Match Task, z",[3]; z score,0.63
same,"Hooper Test (Richardson and Marattoli, 1996), z",[3]; z score,1.30
same,general neurological examination (apart from visual status),[4],normal
same,functional connectivity of right-hemispheric calcarine region (control analysis),[5],no significant differences between on and off periods
same,functional connectivity of left calcarine cortex with bilateral frontoparietal regions,[5]; FIG. 4,increase in connectivity
same,functional connectivity of left calcarine cortex with mesial and lateral regions (default-mode network),[5]; FIG. 4,decrease in correlation
same,intrinsic connectivity of bilateral lateral occipital cortex with the rest of the brain,[5]; FIG. 5,increased its average functional connectivity with the rest of the brain
same,metabolism in the severely lesioned right mesial occipital cortex,[6]; on and off periods,severe and constant hypometabolism
same,metabolism in the intact left occipital and temporal cortex,"[6]; on vs off periods, FIG. 6",significant increase in metabolism
